Measured values published in ChEMBL document CHEMBL5247619, “Novel alpha6 preferring GABA-A receptor ligands based on loreclezole” (Eur J Med Chem, 2022).
pEC50: −log10 of the molar value.

Assays:
[1] = target: Gamma-aminobutyric acid receptor subunit alpha-6/beta-3/gamma-2 (Rattus norvegicus) (UniProt P18508+P30191+P63079); test: Modulation of rat alpha6beta3gamma2 GABA A receptor expressed in Xenopus oocytes assessed as desensitization of GABA current at -80 mV holding potential at more than 300 uM by two-electrode voltage-clamp assay relative to control; assay type: cell-based; settings: filed as modulator
[2] = target: Gamma-aminobutyric acid receptor subunit alpha-6/beta-3/gamma-2 (Rattus norvegicus, UniProt P18508+P30191+P63079); test: Modulation of rat alpha6beta3gamma2 GABA A receptor expressed in Xenopus oocytes assessed as reduction in desensitization at -80 mV holding potential by two-electrode voltage-clamp assay; assay type: cell-based
Chain of Gamma-aminobutyric acid receptor subunit alpha-6/beta-3/gamma-2 (P18508 whole entry): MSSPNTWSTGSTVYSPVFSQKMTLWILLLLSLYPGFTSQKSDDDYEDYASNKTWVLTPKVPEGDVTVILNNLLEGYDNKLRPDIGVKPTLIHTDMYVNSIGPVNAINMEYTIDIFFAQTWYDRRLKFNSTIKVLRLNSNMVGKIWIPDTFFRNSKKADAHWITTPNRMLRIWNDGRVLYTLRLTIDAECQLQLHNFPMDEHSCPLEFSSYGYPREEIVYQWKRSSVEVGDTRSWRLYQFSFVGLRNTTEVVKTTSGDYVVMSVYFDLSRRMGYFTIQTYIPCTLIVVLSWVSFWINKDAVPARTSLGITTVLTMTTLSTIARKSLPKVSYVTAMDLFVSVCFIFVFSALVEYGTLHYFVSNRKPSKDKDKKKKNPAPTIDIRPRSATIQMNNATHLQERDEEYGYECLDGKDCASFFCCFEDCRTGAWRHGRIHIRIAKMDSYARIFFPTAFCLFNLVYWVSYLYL
Chain of Gamma-aminobutyric acid receptor subunit alpha-6/beta-3/gamma-2 (P30191 whole entry): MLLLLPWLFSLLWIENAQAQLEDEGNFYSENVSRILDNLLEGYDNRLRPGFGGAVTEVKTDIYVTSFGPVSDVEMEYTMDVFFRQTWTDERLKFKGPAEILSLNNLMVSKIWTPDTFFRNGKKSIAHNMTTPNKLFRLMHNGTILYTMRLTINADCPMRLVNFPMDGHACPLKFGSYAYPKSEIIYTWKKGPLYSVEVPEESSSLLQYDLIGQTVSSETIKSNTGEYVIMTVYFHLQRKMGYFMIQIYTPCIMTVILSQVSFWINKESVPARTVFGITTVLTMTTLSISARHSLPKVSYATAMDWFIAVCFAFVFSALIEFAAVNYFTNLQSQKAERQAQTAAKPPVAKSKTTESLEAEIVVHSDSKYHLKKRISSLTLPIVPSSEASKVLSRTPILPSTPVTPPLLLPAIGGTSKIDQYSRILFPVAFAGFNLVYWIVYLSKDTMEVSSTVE
Chain of Gamma-aminobutyric acid receptor subunit alpha-6/beta-3/gamma-2 (P63079 whole entry): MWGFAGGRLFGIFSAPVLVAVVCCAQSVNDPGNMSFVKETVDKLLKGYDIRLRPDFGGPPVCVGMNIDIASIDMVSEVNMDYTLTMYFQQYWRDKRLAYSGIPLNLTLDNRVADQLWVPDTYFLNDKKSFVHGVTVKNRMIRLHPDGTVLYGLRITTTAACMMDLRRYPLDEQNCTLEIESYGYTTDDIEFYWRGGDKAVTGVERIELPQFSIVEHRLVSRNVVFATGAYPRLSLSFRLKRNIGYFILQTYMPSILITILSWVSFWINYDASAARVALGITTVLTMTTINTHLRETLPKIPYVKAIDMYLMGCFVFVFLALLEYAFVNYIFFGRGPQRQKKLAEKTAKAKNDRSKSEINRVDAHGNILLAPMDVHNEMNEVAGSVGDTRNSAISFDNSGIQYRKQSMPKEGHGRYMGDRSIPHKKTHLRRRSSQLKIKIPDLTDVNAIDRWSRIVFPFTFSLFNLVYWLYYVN

| SMILES | Activity [1] [%] | pEC50 [2] |
| --- | --- | --- |
| Cc1ccc(C(C)(C)CC#N)c(Cl)c1 | 1360 | 4.55 |
| Cl/C(=C\n1cncn1)c1ccc(Cl)cc1Cl [LORECLEZOLE] | 600 | 4.42 |
| Cc1ccc(C(C)CC#N)c(Cl)c1 (racemic) | 600 | 4.42 |
